{
  "source": "patent US20160074400A1",
  "about": "“WNT MODULATORS FOR THE PROTECTION, MITIGATION AND TREATMENT OF RADIATION INJURY” (University of Southern California, priority 2012, published 2016)",
  "key": {"murine intestinal crypts": {"test_system": "murine intestinal crypts", "test": "Small intestinal crypt organoid culture ex vivo, replacement of Rspo1", "format": "cell-based", "conditions": "FIG. 5", "method": "Small intestinal crypt organoid culture was performed using murine intestinal crypts essentially as described by Ootani et al (Nature Medicine; online publication doi:10.1038/nm.1951, 27 Apr. 2009)), and see also Sato et al (Nature Letters doi:10.1038/nature07935, 2009), both incorporated by reference herein in their entireties."}, "[1]": {"test_system": "asymmetric divisions in mitotic cells of the ventricular zone", "test": "In vivo Par3 distribution assay of asymmetric versus symmetric divisions", "design": "species or system mice", "conditions": "for number of asymmetric divisions: topical or oral administration to pregnant mice, compared to vehicle control", "excerpt": "For example, Bultje et al. (Bultje R Neuron 63, 189-202, 2009) describe an assay to measure asymmetric distributions in the ventricular zone (vz) to evaluate asymmetric divisions during neurogenesis. Essentially this involves treating the animal (either adult or in utero) for a set period of time with compounds (either p.o., s.c., i.v. or topically) with compounds and then sacrificing the animal and examining the Par3 distribution (e.g., via immunohistochemistry) in mitotic cells vs. DNA distribution (e.g., using DAPI staining) Par3 distributes equally among the two daughter cells during symmetric division and unequally (essentially all in one daughter cell) during asymmetric differentiation."}, "[2]": {"test_system": "C57BL/6 mice exposed to whole body irradiation (RIGS)", "test": "Survival (Kaplan-Meier) of mice after lethal whole body irradiation", "format": "in vivo", "conditions": "10.4 Gy WBI; AdRspo1 5×10^9 particles/mice 1 hr and 48 hr post-IR, then ICG-001 150 mg/kg 72 hr post-IR; p<0.003", "method": "C57BL/6 mice were treated with recombinant adenovirus expressing human Rspo1, AdRspo1 (5×10^9 particles/mice, 1 hr and 48 hr post-IR), followed by ICG-001 (150 mg/kg of body weight, 72 hr post-IR) after whole body irradiation (WBI) of 9.4-10.4 Gy. […] Expression of mRNA levels of β-Catenin target genes in crypt cells was determined by qRT-PCR.\nTo examine whether the purified recombinant hRspo1 could mitigate RIGS when administered along with ICG001, we treated C57BL/6 mice after 10.4 Gy of WBI with the combination of recombinant hRspo1+ICG-001. Specifically, C57BL/6 mice (n=10), exposed to 10.4 Gy single fraction WBI, were treated with hRspo1 (20 mg/kg of body weight s.c.) at 24 hr and 48 hr post-WBI. A separate cohort received sequential treatment of hRspo1 (24 hr and 48 hr post WBI) followed by ICG-001 (150 mg/kg of body weight, 72 hr post-IR)."}, "[3]": {"test_system": "mouse intestinal organoids", "test": "Intestinal organoid growth/maintenance assay", "format": "cell-based", "method": "The recombinant human Rspo1 was also tested in an intestinal organoid growth/maintenance test. Self-renewal of the small intestinal and colonic epithelium is driven by the proliferation of stem cells and their progenitors; and their maintenance and growth in culture (ex-vivo) requires the activation of the Wnt pathway. Given that it is essential, only functional Rspo1 will be able to maintain the growth of intestinal organoids and lead to their maintenance and proliferation. FIGS. 12A and 12B show, according to particular exemplary aspects, testing of functionality of recombinant human Rspo1 in an intestinal organoid growth/maintenance assay.\nOrganoids were generated by culturing purified small intestinal crypts in matrigel in Advanced DMEM/F12 supplemented with 500 ng/ml R-spondin 1 [commercial (FIG. 12A) or recombinant (FIG. 12B)], 100 ng/ml EGF and 100 ng/ml Noggin."}, "[4]": {"test_system": "Wnt pathway in 293T cells", "test": "TopFlash luciferase β-catenin activation test", "format": "cell-based", "conditions": "24 hours in 1% FCS, alone and with Wnt3A, versus commercial Rspo1 from R&D biosystems", "method": "The recombinant cDNA used was SEQ ID NO:11, encoding for recombinant human Rspo1 (SEQ ID NO:12, with StrepII tag). Activity of the purified recombinant Rspo1 was assayed using a β-catenin activation test.\nBriefly, 293T cells were transfected with the reporter vector TopFlash, along with TK Renilla (transfection control) using lipofectamine 2000. After the transfection mixture was removed, cells were incubated in 0.1% FCS o/n, and then stimulated with the different inducers at the indicated concentrations in 1% FCS for 24 hours (FIG. 11)."}},
  "data": [
    {"molecule": "O=c1cc(-c2ccccc2)oc2ccc3ccccc3c12", "note": "[beta napthoflavone]", "values": [
      {"measurement": "replacement of Rspo1 for maintenance of small intestinal crypt organoid cultures", "setting": "murine intestinal crypts", "result": "can be used to replace (for at least up to 4 days) Rspo1"}
    ]},
    {"molecule": "Cc1c[nH]c(-c2cnc(NCCNc3ccc(C#N)cn3)nc2-c2ccc(Cl)cc2Cl)n1", "note": "[CHIR]", "values": [
      {"measurement": "replacement of Rspo1 for maintenance of small intestinal crypt organoid cultures", "setting": "murine intestinal crypts", "result": "can be used to replace (for at least up to 4 days) Rspo1"}
    ]},
    {"molecule": "CC(=O)c1ccc(N=NC(C(N)=O)=C2NC(C)(C)Cc3ccccc32)cc1", "note": "[IQ-1, reference compound]", "values": [
      {"measurement": "number of symmetric divisions", "setting": "[1]; pregnant mice", "result": "increases the number of symmetric divisions"},
      {"measurement": "number of asymmetric divisions", "setting": "[1]", "result": "decreases the number of asymmetric divisions"}
    ]},
    {"molecule": "[Cl-].[Li+]", "note": "[LiCl]", "values": [
      {"measurement": "replacement of Rspo1 for maintenance of small intestinal crypt organoid cultures", "setting": "murine intestinal crypts", "result": "can be used to replace (for at least up to 4 days) Rspo1"}
    ]},
    {"molecule": "O=C1[C@H](Cc2ccc(O)cc2)N2C(=O)CCN(C(=O)NCc3ccccc3)[C@H]2CN1Cc1cccc2ccccc12", "note": "[ICG-001]", "values": [
      {"measurement": "mice rescued from radiation lethality", "setting": "[2]", "result": 60, "unit": "%"},
      {"measurement": "number of asymmetric divisions", "setting": "[1]", "result": "does not affect the number of asymmetric divisions"},
      {"measurement": "effect on the defect in asymmetric divisions caused by IQ-1", "setting": "[1]; treatment with excess ICG-001", "result": "corrects the defect in asymmetric divisions caused by IQ-1"}
    ]},
    {"molecule": "recombinant human Rspo1: purified recombinant human R-spondin1, SEQ ID NO:12, with StrepII tag at the c-terminal end (protein, C-terminal StrepII tag; human Rspo1 protein variant with SrepII tag (ESAWSHPQFEK) at c-terminus) MRLGLCVVALVLSWTHLTISSRGIKGKRQRRISAEGSQACAKGCELCSEVNGCLKCSPKLFILLERNDIRQVGVCLPSCPPGYFDARNPDMNKCIKCKIEHCEACFSHNFCTKCKEGLYLHKGRCYPACPEGSSAANGTMECSSPAQCEMSEWSPWGPCSKKQQLCGFRRGSEERTRRVLHAPVGDHAACSDTKETRRCTVRRVPCPEGQKRRKGGQGRRENANRNLARKESKEAGAGSRRRKGQQQQQQQGTVGPLTSAGPAESAWSHPQFEK", "values": [
      {"measurement": "ability to maintain and induce sprouting (proliferation) of the organoids, versus commercial protein", "setting": "[3]; 500 ng/ml R-spondin 1", "result": "identical to the commercial protein"},
      {"measurement": "maintenance of growth and proliferation of intestinal organoids", "setting": "[3]; 500 ng/ml R-spondin 1, 100 ng/ml EGF, 100 ng/ml Noggin, matrigel", "result": "capable of maintaining the growth and proliferation of mouse intestinal organoids in culture"},
      {"measurement": "activation of β-catenin (TopFlash luciferase)", "setting": "[4]", "result": "capable of activating β-catenin by itself and synergizing with Wnt (e.g., Wnt3A) as well as, if not better, than the commercially obtained Rspo1"}
    ]}
  ]
}
